This note sets out measurements from US7691883B2, “Cinnamoyl compound and use of the same” (Sumitomo Chemical Company, Limited, priority 2003, dated 2010).

Structures are written as SMILES.

The term inhibition denotes the percentage by which the read-out fell short of the control.

The test in a line: Ability of a test compound to regulate transcription of a Type I collagen gene using the expression level of a reporter gene (COL-Luc luciferase) as an index. It counts as cell-based. The settings on record: final concentration 1 μM; normal human fetal skin fibroblast transfected with COL-Luc; TGF-β, 40 hours; read-out: inhibition percentage (inhibitory effect on the ability of TGF-β to promote transcription of a Type I collagen gene). How it is done:
1×10^8 cells of a normal human fetal skin fibroblast (Clontech, catalogue No. CC-2509) were cultured at 37° C. overnight under 5% CO2 atmosphere. After the cultured cells were washed with a sodium phosphate buffer (hereinafter, referred to as PBS) twice, 3 ml of PBS was added thereto and the cells were scraped away the wall of a vessel using a cell scraper (Nalgen, catalogue No. 179693). The scraped cells were collected by centrifugation (1,500 rpm, 4° C., 15 min), and these were suspended in 20 ml of PBS and centrifuged again. To the resulting precipitates were added 11 ml of Solution 2 and 4.8 μl of pronase of DNA Extraction Kit (Stratagene, catalogue No. 200600). After shaken at 60° C. for 1 hour, the resulting mixture was allowed to stand in ice for 10 minutes. Then, 4 ml of Solution 3 of the kit was added to the mixture. After mixed, the mixture was allowed to stand in ice for 5 minutes and then centrifuged (3,000 rpm, 4° C., 15 min) to recover a supernatant. To the recovered supernatant was added 2 μl of RNase per 1 ml of the supernatant and the mixture was allowed to stand at 37° C. for 15 minutes. To the mixture was added 2-fold volume of ethanol. After mixed, a white thread-like substance (genomic DNA) appeared and the substance was recovered. The recovered genomic DNA washed with 70% ethanol and then air-dried. The air-dried genomic DNA was dissolved in 500 μl of 10 mM Tris-HCl, 1 mM EDTA (pH 8.0) (hereinafter, referred to as TE).
The resulting genomic DNA solution (the amount equivalent to 1 μg of genomic DNA), each 1 μl (10 pmol/μl) of an oligonucleotide consisting of the nucleotide sequence represented by SEQ ID No:1 and an oligonucleotide consisting of the nucleotide sequence represented by SEQ ID No:2, 29 μL of distilled water, 5 μl of the buffer attached to TaKaRa LA Taq (TAKARA SHUZO, catalogue No. RR002A), 5 μL of a Mg^2+ solution, 5 μL of a dNTP mixture and 0.5 μl of TaKaRa LA Taq (TAKARA SHUZO, catalogue No. RR002A) were mixed. After the resulting mixed solution was incubated at 94° C. for 5 minutes, the mixed solution was subjected to 30 cycles, in which one cycle consists of incubation at 94° C. for 1 minute, at 60° C. for 1 minute and then at 72° C. for 1 minute. The mixed solution was electrophoresed on a 2% agarose gel to recover about 0.5 kb of a DNA. The recovered DNA was treated with phenol/chloroform and then precipitated with ethanol to recover the DNA. The resulting DNA was dissolved in ultrapure water. To this solution were added 2.5 μl of NheI and 2.5 μl of HindIII, and then incubated at 37° C. for 3 hours. Then, the solution was electrophoresed on a 2% agarose gel to recover about 3.5 kb of a DNA. The recovered DNA was precipitated with ethanol to recover again the DNA (hereinafter, referred to as the collagen promoter DNA).
On the other hand, the vector pGL3 (Promega, catalogue No. E1751) having the nucleotide sequence encoding firefly luciferase was digested with NheI and HindIII, and then subjected to agarose gel electrophoresis as described above to recover about 5 kb of a DNA. The recovered DNA was precipitated with ethanol to recover the DNA again. To the recovered DNA were added 44 μl of distilled water, 5 μl of Buffer attached to Alkaline Phosphatase (TAKARA SHUZO, catalogue No. 2120A) and 1 μl of Alkaline Phosphatase (TAKARA SHUZO, catalogue No. 2120A). The mixed solution was incubated at 65° C. for 30 minutes. Then, the mixed solution was treated with phenol/chloroform twice, and precipitated with ethanol to recover the DNA (hereinafter referred to as the Luc vector DNA). Then, after about 20 ng of the collagen promoter DNA and about 20 ng of the Luc vector DNA were mixed, the same amount of a DNA Ligation kit Ver2 enzyme solution was added and this was incubated overnight at 16° C. To the mixed solution was added Escherichia coli 5Hdα (TOYOBO, catalogue No. DNA-903), this was allowed to stand in ice for 30 minutes, and then incubated at 42° C. for 45 seconds. […]
On the technique in general: A reporter such as luciferase makes a cellular process visible.
For `COc1cc(C)oc(=O)c1C(=O)C=Cc1cccc(C=CC#N)c1` [(2a), 4-methoxy-3-[3-[3-(2-cyanoethenyl)phenyl]-1-oxo-2-propenyl]-6-methyl-2H-pyran-2-one], the inhibition at 1 µM was at least 70%.

Take `COCC(=O)Nc1cccc(C=CC(=O)c2c(N3CCCCC3)c3ccccc3oc2=O)c1` [(17e), 4-piperidino-3-[3-[3-(methoxyacetylamino)phenyl]-1-oxo-2-propenyl]-2H-1-benzopyran-2-one]: the inhibition at 1 µM is at least 70%.

On to `COCCOC(=O)Nc1cccc(C=CC(=O)c2c(OC)cc(C)oc2=O)c1` [(25a), 4-methoxy-3-[3-[3-[(2-methoxyethoxy)carbonylamino]phenyl]-1-oxo-2-propenyl]-6-methyl-2H-pyran-2-one], for which the inhibition at 1 µM was at least 70%.

As for `COC(=O)CNC(=O)c1cccc(C=CC(=O)c2c(N3CCCCC3)cc(C)oc2=O)c1` [(16b), 4-piperidino-3-[3-[3-[[(methoxycarbonylmethyl)amino]carbonyl]phenyl]-1-oxo-2-propenyl]-6-methyl-2H-pyran-2-one], the inhibition at 1 µM was at least 70%.

Regarding `C=CCOc1cccc(C=CC(=O)c2c(OCC=C)cc(C)oc2=O)c1` [(1b), 4-allyloxy-3-[3-(3-allyloxyphenyl)-1-oxo-2-propenyl]-6-methyl-2H-pyran-2-one], the inhibition at 1 µM is at least 70%.

`COCCOC(=O)Nc1cccc(C=CC(=O)c2c(O)cc(C)oc2=O)c1` [(24a), 4-hydroxy-3-[3-[3-[(2-methoxyethoxy)carbonylamino]phenyl]-1-oxo-2-propenyl]-6-methyl-2H-pyran-2-one]: the inhibition at 1 µM was at least 70%.

On to `C#CCOc1ccc(C=CC(=O)c2c(OC)cc(C)oc2=O)cc1` [(10a), 4-methoxy-3-[3-(4-propargyloxyphenyl)-1-oxo-2-propenyl]-6-methyl-2H-pyran-2-one], for which the inhibition at 1 µM is at least 70%.

`C#CCOc1cccc(C=CC(=O)c2c(OCC=C)cc(C)oc2=O)c1` [(2b), 4-allyloxy-3-[3-(3-propargyloxyphenyl)-1-oxo-2-propenyl]-6-methyl-2H-pyran-2-one]: the inhibition at 1 µM is at least 70%.

As for `C=CCOc1cccc(C=CC(=O)c2c(OC)cc(C)oc2=O)c1` [(5a), 4-methoxy-3-[3-(3-allyloxyphenyl)-1-oxo-2-propenyl]-6-methyl-2H-pyran-2-one], the inhibition at 1 µM was at least 70%.

Consider `COCCNC(=O)c1ccc(C=CC(=O)c2c(O)cc(C)oc2=O)cc1` [(36a), 4-hydroxy-3-[3-[4-[(2-methoxyethyl)aminocarbonyl]phenyl]-1-oxo-2-propenyl]-6-methyl-2H-pyran-2-one], for which the inhibition at 1 µM is at least 70%.

With `N#CCOc1cccc(C=CC(=O)c2c(O)c3ccccc3oc2=O)c1` [(14d), 4-hydroxy-3-[3-[3-(cyanomethoxy)phenyl]-1-oxo-2-propenyl]-2H-1-benzopyran-2-one], the inhibition at 1 µM was at least 70%.

For the compound `CSCCOc1cccc(C=CC(=O)c2c(N3CCCCC3)cc(C)oc2=O)c1` [(14b), 4-piperidino-3-[3-[3-(2-methylthioethoxy)phenyl]-1-oxo-2-propenyl]-6-methyl-2H-pyran-2-one], the inhibition at 1 µM was at least 70%.

Turning to `COCCOC(=O)Nc1cccc(C=CC(=O)c2c(O)c3ccccc3oc2=O)c1` [(24d), 4-hydroxy-3-[3-[3-[(2-methoxyethoxy)carbonylamino]phenyl]-1-oxo-2-propenyl]-2H-1-benzopyran-2-one], the inhibition at 1 µM is at least 70%.

For the compound `COc1c(C(=O)C=Cc2cccc(OCC#N)c2)c(=O)oc2ccccc12` [(15d), 4-methoxy-3-[3-[3-(cyanomethoxy)phenyl]-1-oxo-2-propenyl]-2H-1-benzopyran-2-one], the inhibition at 1 µM was at least 70%.

As for `COCCOC(=O)Nc1cccc(C=CC(=O)c2c(OC)c3ccccc3oc2=O)c1` [(25d), 4-methoxy-3-[3-[3-[(2-methoxyethoxy)carbonylamino]phenyl]-1-oxo-2-propenyl]-2H-1-benzopyran-2-one], the inhibition at 1 µM was at least 70%.

On to `COCCOC(=O)Nc1cccc(C=CC(=O)c2c(N3CCCCC3)c3ccccc3oc2=O)c1` [(18e), 4-piperidino-3-[3-[3-[(2-methoxyethoxy)carbonylamino]phenyl]-1-oxo-2-propenyl]-2H-1-benzopyran-2-one], for which the inhibition at 1 µM was at least 70%.

Regarding `COCC(=O)Nc1cccc(C=CC(=O)c2c(OC)c3ccccc3oc2=O)c1` [Compound (22d), 4-methoxy-3-[3-[3-(methoxyacetylamino)phenyl]-1-oxo-2-propenyl]-2H-1-benzopyran-2-one], the inhibition at 1 µM is at least 70%.

Turning to `COCC(=O)Nc1cccc(C=CC(=O)c2c(OC)cc(C)oc2=O)c1` [(22a), 4-methoxy-3-[3-[3-(methoxyacetylamino)phenyl]-1-oxo-2-propenyl]-6-methyl-2H-pyran-2-one], the inhibition at 1 µM is at least 70%.

Turning to `Cc1cc(O)c(C(=O)C=Cc2ccc(C(=O)NCCO)cc2)c(=O)o1` [(32d), 4-hydroxy-3-[3-[4-[(2-hydroxyethyl)aminocarbonyl]phenyl]-1-oxo-2-propenyl]-6-methyl-2H-pyran-2-one], the inhibition at 1 µM was at least 70%.

As for `COc1cc(C)oc(=O)c1C(=O)C=Cc1cccc(OCC#N)c1` [(15a), 4-methoxy-3-[3-[3-(cyanomethoxy)phenyl]-1-oxo-2-propenyl]-6-methyl-2H-pyran-2-one], the inhibition at 1 µM is at least 70%.

For `C#CCOc1cccc(C=CC(=O)c2c(O)cc(C)oc2=O)c1` [(7a), 4-hydroxy-3-[3-(3-propargyloxyphenyl)-1-oxo-2-propenyl]-6-methyl-2H-pyran-2-one], the inhibition at 1 µM was at least 70%.

In the case of `C#CCNc1cc(C)oc(=O)c1C(=O)C=Cc1cccc(C=CC#N)c1` [(20b), 4-propargylamino-3-[3-[3-(2-cyanoethenyl)phenyl]-1-oxo-2-propenyl]-6-methyl-2H-pyran-2-one], the inhibition at 1 µM was at least 70%.
